Experimental data as given in ChEMBL document CHEMBL1127888, “Synthesis and biological activity of intercalator substituted bile steroids” (Bioorg Med Chem Lett, 1994).

Legend:
L1210 [1] = assay: Inhibitory activity against mouse leukemia L1210 cells; Range is 20 to >50; format: functional, cell-based
L1210 [2] = assay: Inhibitory activity against mouse leukemia L1210 cells; format: functional, cell-based

| IC50 (L1210 [1]) [µM] | IC50 (L1210 [2]) [µM] | SMILES |
| --- | --- | --- |
| > 50 |  | CC(CCCOC(=O)c1ccc2ccccc2n1)C1CC[C@H]2[C@@H]3[C@H](O)CC4C[C@H](OC(=O)c5cnc6ccccc6n5)CC[C@]4(C)[C@H]3C[C@H](O)[C@]12C (stereo not given in full) |
| > 50 |  | CC(CCCOC(=O)c1ccc2ccccc2n1)C1CC[C@H]2[C@@H]3[C@H](O)CC4C[C@H](OC(=O)c5ccc6ccccc6n5)CC[C@]4(C)[C@H]3C[C@H](O)[C@]12C (stereo not given in full) |
| > 50 |  | CC(CCCOC(=O)c1cnc2ccccc2c1)C1CC[C@H]2[C@@H]3[C@H](O)CC4C[C@H](OC(=O)c5cnc6ccccc6c5)CC[C@]4(C)[C@H]3C[C@H](O)[C@]12C (stereo not given in full) |
|  | 4.8 | CC(CCCOC(=O)c1cnc2ccccc2c1)C1CC[C@H]2[C@@H]3[C@H](O)CC4C[C@H](O)CC[C@]4(C)[C@H]3C[C@H](O)[C@]12C (stereo not given in full) |
| > 50 |  | CC(CCCOC(=O)c1cnc2ccccc2n1)C1CC[C@H]2[C@@H]3[C@H](O)CC4C[C@H](OC(=O)c5cnc6ccccc6n5)CC[C@]4(C)[C@H]3C[C@H](O)[C@]12C (stereo not given in full) |
